Consider one compound from article PMC7206119, “RIP1 inhibition blocks inflammatory diseases but not tumor growth or metastases” (Cell Death and Differentiation, 2019).

Targets include ACVR2A (Homo sapiens, UniProt P27037); AKT2 (Homo sapiens, UniProt P31751); BMPR1A (Homo sapiens, UniProt P36894); BMPR1B (Homo sapiens, UniProt O00238); CAMK2B (Homo sapiens, UniProt Q13554); CSNK1G2 (Homo sapiens, UniProt P78368); EGFR(L858R) (Homo sapiens, UniProt P00533, L858R); EPHA7 (Homo sapiens, UniProt Q15375); FGFR1 (Homo sapiens, UniProt P11362); FLT3(ITD,F691L) (Homo sapiens, UniProt P36888, F691L/ITD); GRK7 (Homo sapiens, UniProt Q8WTQ7); NEK9 (Homo sapiens, UniProt Q8TD19); PRKCD (Homo sapiens, UniProt Q05655); SRPK2 (Homo sapiens, UniProt P78362); STK36 (Homo sapiens, UniProt Q9NRP7); TESK1 (Homo sapiens, UniProt Q15569).

Common to all, as to assay: biochemical
What all share (set-up): DiscoverX kinase panel, active-site competition binding (KINOMEscan type), percent of control at one concentration
Common to all, as to settings: competition binding, percent of control

The target of another test is T1, DCAMKL3 (Homo sapiens, UniProt Q9C098).
T1 construct: gene DCLK3

The target of another test is T2, ERK8 (Homo sapiens, UniProt Q8TD08).
T2 construct: gene MAPK15

The target in a further test is T3, MRCKB (Homo sapiens, UniProt Q9Y5S2).
T3 construct: gene CDC42BPB

A further test has as its target T4, PKAC-beta (Homo sapiens, UniProt P22694).
T4 construct: gene PRKACB

Another test has as its target T5, SGK (Homo sapiens, UniProt O00141).
T5 construct: gene SGK1

EGFR(L858R), sequence (P00533 whole entry L858R): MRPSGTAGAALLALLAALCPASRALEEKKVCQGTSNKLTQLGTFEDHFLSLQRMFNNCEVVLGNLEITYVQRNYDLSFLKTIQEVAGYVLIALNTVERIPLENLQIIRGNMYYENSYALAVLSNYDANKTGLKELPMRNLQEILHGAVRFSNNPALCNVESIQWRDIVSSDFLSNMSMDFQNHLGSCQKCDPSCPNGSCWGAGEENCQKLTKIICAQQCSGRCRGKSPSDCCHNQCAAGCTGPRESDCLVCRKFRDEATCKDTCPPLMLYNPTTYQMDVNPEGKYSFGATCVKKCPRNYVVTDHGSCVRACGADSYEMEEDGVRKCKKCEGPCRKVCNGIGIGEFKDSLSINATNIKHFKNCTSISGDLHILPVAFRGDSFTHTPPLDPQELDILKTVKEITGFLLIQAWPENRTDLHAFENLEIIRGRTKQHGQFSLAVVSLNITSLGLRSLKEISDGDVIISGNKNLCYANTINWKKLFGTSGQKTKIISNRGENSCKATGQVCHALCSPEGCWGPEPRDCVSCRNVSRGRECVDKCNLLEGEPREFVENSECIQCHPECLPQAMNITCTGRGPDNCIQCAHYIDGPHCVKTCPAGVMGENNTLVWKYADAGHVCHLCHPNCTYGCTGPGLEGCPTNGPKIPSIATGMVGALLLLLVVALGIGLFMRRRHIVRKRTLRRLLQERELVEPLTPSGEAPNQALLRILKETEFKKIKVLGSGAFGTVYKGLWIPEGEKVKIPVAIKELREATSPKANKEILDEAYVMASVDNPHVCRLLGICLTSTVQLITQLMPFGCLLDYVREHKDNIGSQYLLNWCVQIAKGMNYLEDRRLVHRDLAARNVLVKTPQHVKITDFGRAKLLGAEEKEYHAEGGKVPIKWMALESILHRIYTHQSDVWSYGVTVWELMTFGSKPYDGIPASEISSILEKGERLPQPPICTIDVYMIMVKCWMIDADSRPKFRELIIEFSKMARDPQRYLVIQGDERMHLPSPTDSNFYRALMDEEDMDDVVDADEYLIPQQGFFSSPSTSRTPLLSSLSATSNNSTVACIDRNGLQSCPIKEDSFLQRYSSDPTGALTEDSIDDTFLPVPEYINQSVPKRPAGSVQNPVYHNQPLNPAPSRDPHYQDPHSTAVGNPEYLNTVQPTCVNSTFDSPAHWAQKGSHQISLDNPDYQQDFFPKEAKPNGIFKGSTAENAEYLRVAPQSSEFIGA
CSNK1G2, sequence (P78368 whole entry): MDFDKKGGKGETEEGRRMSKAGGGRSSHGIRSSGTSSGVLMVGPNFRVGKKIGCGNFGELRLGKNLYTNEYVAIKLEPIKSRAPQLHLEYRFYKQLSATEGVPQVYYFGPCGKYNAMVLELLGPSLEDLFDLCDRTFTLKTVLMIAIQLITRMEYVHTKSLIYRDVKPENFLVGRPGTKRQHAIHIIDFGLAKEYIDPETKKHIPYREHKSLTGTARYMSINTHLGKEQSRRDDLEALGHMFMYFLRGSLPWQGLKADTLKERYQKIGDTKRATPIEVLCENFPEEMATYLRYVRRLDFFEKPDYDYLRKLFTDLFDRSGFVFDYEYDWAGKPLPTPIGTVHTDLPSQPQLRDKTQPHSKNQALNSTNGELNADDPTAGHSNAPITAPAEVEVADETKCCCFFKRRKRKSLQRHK
ACVR2A, sequence (P27037 whole entry): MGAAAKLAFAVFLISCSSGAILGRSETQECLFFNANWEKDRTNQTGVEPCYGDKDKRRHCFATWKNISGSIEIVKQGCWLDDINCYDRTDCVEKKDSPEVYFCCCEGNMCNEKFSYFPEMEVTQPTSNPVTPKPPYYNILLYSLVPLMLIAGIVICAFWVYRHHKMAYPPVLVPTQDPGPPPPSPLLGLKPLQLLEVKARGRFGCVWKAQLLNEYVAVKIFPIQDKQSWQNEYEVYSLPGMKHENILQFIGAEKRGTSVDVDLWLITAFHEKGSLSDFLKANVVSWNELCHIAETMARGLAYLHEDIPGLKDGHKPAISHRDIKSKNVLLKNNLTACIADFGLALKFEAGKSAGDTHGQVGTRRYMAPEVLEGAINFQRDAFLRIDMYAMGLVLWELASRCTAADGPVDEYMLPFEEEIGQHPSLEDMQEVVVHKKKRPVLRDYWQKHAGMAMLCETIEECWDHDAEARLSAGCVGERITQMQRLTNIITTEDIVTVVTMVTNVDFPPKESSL
T5 sequence (O00141 whole entry): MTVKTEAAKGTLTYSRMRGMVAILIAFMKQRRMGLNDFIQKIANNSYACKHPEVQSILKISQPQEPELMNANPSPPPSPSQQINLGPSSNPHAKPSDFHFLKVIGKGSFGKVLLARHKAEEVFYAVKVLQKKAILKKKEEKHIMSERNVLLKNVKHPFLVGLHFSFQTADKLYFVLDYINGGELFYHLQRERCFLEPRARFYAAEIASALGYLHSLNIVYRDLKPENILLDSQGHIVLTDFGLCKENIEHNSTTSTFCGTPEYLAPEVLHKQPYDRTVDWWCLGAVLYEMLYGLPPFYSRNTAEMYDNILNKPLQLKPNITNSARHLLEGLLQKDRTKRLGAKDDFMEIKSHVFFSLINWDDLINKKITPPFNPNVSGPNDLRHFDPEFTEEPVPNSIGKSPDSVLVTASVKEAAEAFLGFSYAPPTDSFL
BMPR1A, sequence (P36894 whole entry): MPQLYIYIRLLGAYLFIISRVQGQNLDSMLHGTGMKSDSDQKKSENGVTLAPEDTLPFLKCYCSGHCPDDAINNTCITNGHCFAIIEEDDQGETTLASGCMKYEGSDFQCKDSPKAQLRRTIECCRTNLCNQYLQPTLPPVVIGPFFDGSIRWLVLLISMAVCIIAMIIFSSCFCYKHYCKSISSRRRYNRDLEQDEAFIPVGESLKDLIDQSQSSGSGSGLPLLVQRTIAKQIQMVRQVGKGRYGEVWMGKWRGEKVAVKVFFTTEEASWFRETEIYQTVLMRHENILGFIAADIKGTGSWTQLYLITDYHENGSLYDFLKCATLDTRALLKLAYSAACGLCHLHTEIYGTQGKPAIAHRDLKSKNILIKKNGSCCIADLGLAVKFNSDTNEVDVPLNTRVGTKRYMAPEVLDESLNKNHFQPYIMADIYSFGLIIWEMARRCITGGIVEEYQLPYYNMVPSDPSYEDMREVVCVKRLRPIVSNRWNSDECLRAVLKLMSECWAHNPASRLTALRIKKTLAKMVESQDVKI
PRKCD, sequence (Q05655 whole entry): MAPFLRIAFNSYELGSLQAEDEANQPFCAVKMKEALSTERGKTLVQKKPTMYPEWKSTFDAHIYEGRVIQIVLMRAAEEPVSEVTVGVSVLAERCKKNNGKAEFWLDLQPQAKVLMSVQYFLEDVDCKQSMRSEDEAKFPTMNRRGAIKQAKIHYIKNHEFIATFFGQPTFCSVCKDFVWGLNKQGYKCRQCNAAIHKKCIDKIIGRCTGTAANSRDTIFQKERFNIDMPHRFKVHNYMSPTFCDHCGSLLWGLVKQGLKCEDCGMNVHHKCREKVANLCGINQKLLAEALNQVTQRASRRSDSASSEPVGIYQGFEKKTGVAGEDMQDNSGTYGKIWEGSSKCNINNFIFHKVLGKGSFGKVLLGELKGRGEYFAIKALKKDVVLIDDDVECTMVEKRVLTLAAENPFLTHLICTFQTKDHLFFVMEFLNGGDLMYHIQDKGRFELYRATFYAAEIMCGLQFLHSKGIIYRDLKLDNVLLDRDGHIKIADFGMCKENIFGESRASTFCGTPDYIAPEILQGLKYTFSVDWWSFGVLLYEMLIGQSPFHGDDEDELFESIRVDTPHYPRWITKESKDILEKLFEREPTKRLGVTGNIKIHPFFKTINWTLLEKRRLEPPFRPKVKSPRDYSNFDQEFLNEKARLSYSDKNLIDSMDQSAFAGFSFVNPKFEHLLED
T1 sequence (Q9C098 whole entry): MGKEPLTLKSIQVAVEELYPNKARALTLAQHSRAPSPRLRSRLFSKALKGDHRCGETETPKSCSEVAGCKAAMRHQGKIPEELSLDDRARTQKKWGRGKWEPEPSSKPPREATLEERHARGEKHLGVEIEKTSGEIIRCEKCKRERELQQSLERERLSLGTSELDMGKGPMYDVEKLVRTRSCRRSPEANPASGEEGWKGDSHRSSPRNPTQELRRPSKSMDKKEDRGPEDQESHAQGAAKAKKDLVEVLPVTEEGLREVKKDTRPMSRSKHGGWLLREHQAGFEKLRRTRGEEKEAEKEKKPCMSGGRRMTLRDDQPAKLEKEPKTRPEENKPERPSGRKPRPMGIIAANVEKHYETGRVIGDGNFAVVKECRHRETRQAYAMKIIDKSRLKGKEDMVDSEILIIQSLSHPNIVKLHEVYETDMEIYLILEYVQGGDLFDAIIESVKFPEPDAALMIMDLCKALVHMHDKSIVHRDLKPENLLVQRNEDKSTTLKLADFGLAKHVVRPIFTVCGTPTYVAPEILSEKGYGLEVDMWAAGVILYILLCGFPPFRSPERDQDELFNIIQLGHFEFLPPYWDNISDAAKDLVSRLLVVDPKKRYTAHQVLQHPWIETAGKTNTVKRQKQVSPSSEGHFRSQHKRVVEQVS
T2 sequence (Q8TD08 whole entry): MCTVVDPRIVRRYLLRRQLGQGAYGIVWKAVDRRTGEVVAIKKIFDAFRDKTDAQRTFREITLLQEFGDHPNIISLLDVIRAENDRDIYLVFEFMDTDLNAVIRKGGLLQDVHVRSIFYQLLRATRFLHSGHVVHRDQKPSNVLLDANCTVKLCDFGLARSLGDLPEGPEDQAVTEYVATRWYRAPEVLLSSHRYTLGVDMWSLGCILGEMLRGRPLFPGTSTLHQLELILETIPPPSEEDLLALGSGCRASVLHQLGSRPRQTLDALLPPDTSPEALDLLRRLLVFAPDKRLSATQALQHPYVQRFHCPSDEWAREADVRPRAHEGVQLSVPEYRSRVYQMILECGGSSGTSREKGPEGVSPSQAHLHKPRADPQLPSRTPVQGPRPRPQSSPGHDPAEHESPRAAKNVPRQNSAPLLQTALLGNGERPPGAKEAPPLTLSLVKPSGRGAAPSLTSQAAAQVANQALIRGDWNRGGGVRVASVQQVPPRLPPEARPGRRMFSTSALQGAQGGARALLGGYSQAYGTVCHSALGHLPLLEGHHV

With `COc1cc2c(cn1)N(C)C(=O)[C@@H](NC(=O)c1nc3n(n1)[C@H](c1ccccc1)CC3)CC2` [GNE684, (S)-N-((S)-7-methoxy-1-methyl-2-oxo-2,3,4,5-tetrahydro-1H-pyrido[3,4-b]azepin-3-yl)-5-phenyl-6,7-dihydro-5H-pyrrolo[1,2-b][1,2,4]triazole-2-carboxamide], the remaining binding at 10 µM at ACVR2A was found to be 82%; on AKT2, 92%; at BMPR1A, 91%; at BMPR1B, 100%; at CAMK2B, 76%; on CSNK1G2, 90%. The remaining binding at 10 µM at DCAMKL3 worked out at 92%; on EGFR(L858R) it was 100%; at EPHA7, 100%; at ERK8 it was 85%; on FGFR1 it was 92%; on FLT3(ITD,F691L), 98%. Further, the remaining binding at 10 µM on GRK7 was 100%; on MRCKB, 100%; at NEK9, 99%; on PKAC-beta it was 72%; on PRKCD, 86%; at SGK, 100%. Moreover, the remaining binding at 10 µM was found to be 100% on SRPK2, 85% at STK36 and 94% at TESK1.
